Results: patent publication US5597832A (Abbott Laboratories, priority 1994, dated 1997)
Counter-ions that a name gives are not always drawn. Like-named read-outs stand apart in the source and are kept apart here.

What was measured:
[1] = tested on: dopamine receptors; details: literature; cited from earlier work
[2] = target: T1, dopamine D-2 receptor (Rattus norvegicus, UniProt P61169); assay: D-2 receptor competitive binding, [3H]-spiroperidol, homogenized rat caudate; details: read-out: D-2 Ki
T1 construct: Homogenized rat caudate was the source of the D-2 receptors; from tissue; host or cells: rat caudate homogenate

[3] = tested on: D-1 receptor; assay: Adenylate cyclase assay (agonist activity, cAMP); assay type: biochemical, goldfish retina or rat striatum
[4] = target: T2, dopamine D-1 receptor (Rattus norvegicus, UniProt P18901); details: read-out: D-1 Ki
[5] = tested on: striatal dopamine receptors; assay: animal or person; assay type: in vivo; details: Rattus norvegicus, sc, read-out: EC50, rotation behavior
[6] = target: T2, dopamine D-1 receptor; assay: biochemical
[7] = tested on: rats; details: literature; cited from earlier work
[8] = tested on: schizophrenia; details: literature, cited from earlier work; for antipsychotic effects: low doses
[9] = tested on: Parkinson's disease; details: alone, some patients; cited from earlier work
[10] = goldfish retina or rat striatum homogenate

T1 sequence (P61169 whole entry): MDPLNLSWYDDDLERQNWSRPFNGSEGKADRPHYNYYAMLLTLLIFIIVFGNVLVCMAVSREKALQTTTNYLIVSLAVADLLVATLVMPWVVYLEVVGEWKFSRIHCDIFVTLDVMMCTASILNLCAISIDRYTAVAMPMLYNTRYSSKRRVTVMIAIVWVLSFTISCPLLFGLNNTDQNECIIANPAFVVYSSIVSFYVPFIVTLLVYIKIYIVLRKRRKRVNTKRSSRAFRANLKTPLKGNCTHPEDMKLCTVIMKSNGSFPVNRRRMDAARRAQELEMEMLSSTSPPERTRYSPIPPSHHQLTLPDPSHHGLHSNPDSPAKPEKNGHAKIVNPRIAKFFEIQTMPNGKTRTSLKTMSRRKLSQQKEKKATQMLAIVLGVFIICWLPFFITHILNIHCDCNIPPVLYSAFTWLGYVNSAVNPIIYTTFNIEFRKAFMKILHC
T2 sequence (P18901 whole entry): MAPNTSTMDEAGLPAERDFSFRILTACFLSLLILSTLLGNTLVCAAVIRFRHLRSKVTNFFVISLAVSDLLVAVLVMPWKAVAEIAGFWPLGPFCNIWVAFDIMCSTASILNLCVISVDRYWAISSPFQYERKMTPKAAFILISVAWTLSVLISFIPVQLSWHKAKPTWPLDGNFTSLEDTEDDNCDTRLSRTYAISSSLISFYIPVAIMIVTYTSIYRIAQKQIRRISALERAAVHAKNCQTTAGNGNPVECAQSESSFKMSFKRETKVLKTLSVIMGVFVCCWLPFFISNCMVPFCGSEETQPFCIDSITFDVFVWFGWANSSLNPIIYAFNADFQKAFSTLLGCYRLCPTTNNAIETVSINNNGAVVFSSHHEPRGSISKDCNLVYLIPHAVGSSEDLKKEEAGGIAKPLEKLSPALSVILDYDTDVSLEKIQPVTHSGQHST

Structure (SMILES) | Intrinsic Activity (%) [3] | Ki ([2]; rat caudate, [3H]-spiroperidol) | ED50 [5] | Ki [6] | EC50 [3] | also measured
Oc1ccc2c(c1O)CCC1NCc3ccccc3C21 (stereo not shown) |  |  |  |  |  | dopamine agonist activity [1]: inactive at dopamine receptors
Cc1sc2c(c1C)CN[C@H]1CCc3cc(O)c(O)cc3[C@H]21 (relative stereo) [Example 21, trans-2,3-dimethyl-4,5,5a,6,7,11b-hexahydro-1-thia-5-aza-cyclopent-2-ena[c]phenanthrene-9,10-diol hydrobromide] | 95% |  |  |  |  | Ki [2]: 66 nM; EC50 [3, 10]: 182 nM; Ki [4]: 15 nM
Oc1cc2c(cc1O)[C@H]1c3sc(C(F)(F)F)nc3CN[C@@H]1CC2 (relative stereo) [Example 28, trans-2-Trifluoromethyl-4,5,5a,6,7, 11b-hexahydro-1-thia-3,5-diaza-cyclopent-2-ena[c]phenanthrene-9,10-diol] | 77% | > 5000 nM | 0.4 µmol/kg | 52 nM |  | EC50 [3, 10]: 202 nM
CC(C)CCc1cc2c(s1)[C@@H]1c3cc(O)c(O)cc3CC[C@H]1NC2 (relative stereo) [Example 30, trans-2-(3-Methylbutyl)-4,5,5a,6,7,11b-hexahydro-1-thia-5-aza-cyclopent-2-ena[c]phenanthrene-9,10-diol hydrobromide] | 70% | 560 nM | > 1 µmol/kg | 62 nM |  | EC50 [3, 10]: 105 nM
CC(C)c1cc2c(s1)[C@@H]1c3cc(O)c(O)cc3CC[C@H]1NC2 (relative stereo) [Example 34, trans-2-Isopropyl-4,5,5a,6,7,11b-hexahydro-1-thia-5-aza-cyclopent-2-ena[c]phenanthrene-9,10-diol trifluoroacetate salt] | 80% | 420 nM | 0.04 µmol/kg | 4 nM | 16 nM | 
CCc1cc2c(o1)CN[C@@H]1CCc3cc(O)c(O)cc3[C@@H]21 (relative stereo) [Example 40, trans-2-Ethyl-4,5,5a,6,7,11b-hexahydro-3-oxa-5-aza-cyclopent-1-ena[c]phenanthrene-9,10-diol hydrochloride] | 70% | 480 nM | 0.12 µmol/kg |  | 37 nM | Ki [4]: 15 nM
CCCc1cc2c(o1)CN[C@@H]1CCc3cc(O)c(O)cc3[C@@H]21 (relative stereo) [Example 41, trans-2-Propyl-4,5,5a,6,7,11b-hexahydro-3-oxa-5-aza-cyclopent-1-ena[c]phenanthrene-9,10-diol] | 87% | 600 nM | 0.07 µmol/kg | 21 nM | 46 nM | 
CC(C)c1nc2c(o1)[C@@H]1c3cc(O)c(O)cc3CC[C@H]1NC2 (relative stereo) [Example 50, trans-2-isopropyl-4,5,5a,6,7,11b-hexahydro-1-oxa-3,5-diaza-cyclopent-2-ena[c]phenanthrene-9,10-diol dihydrobromide] | 108% | 365 nM | > 1 µmol/kg |  | 81 nM | Ki [4]: 12 nM
Cc1nc2c(o1)[C@@H]1c3cc(O)c(O)cc3CC[C@H]1NC2 (relative stereo) [Example 51, trans-2-Methyl-4,5,5a,6,7,11b-hexahydro-1-oxa-3,5-diaza-cyclopent-2-ena[c]phenanthrene-9,10-diol] | 100% | 382 nM | 0.33 µmol/kg |  | 65 nM | Ki [4]: 11 nM
CCCc1nc2c(s1)CN[C@@H]1CCc3cc(O)c(O)cc3[C@@H]21 (relative stereo) [Example 54, trans-2-propyl-4,5,5a,6,7,11b-hexahydro-1,5-diaza-3-thia-cyclopent-1-ena[c]phenanthrene-9,10-diol dihydrobromide] | 67% | > 5000 nM | 0.21 µmol/kg | 220 nM |  | EC50 [3, 10]: 580 nM
CCc1cc2c(o1)[C@@H]1c3cc(O)c(O)cc3CC[C@H]1NC2 (relative stereo) [Example 55, trans-2-ethyl-4,5,5a,6,7,11b-hexahydro-1-oxa-5-aza-cyclopent-2-ena[c]phenanthrene-9,10-diol hydrochloride] | 92% | 368 nM | 0.17 µmol/kg | 10 nM | 64 nM | 
Oc1cc2c(cc1O)C1c3cc(C45CC6CC(CC(C6)C4)C5)sc3CNC1CC2 (stereo not shown) [Example 47, 2-(Adamantyl)-4,5,5a,6,7,11b-hexahydro-3-thia-5-aza-cyclopent-1-ena[c]phenanthrene-9,10-diol hydrobromide] |  | > 5000 nM |  |  |  | Ki ([4]; rat caudate, [125I]SCH-23982): > 10000 nM
Oc1cc2c(cc1O)C(c1ccccc1)CNCC2 (stereo not shown) [SKF 38393] |  |  |  |  |  | food intake [7]: decrease food intake by rats; effect on side-effects of haloperidol ([8]; used in conjunction with haloperidol): ameliorate the undesired side-effects of the haloperidol
CN1CCc2cccc3c2[C@H]1Cc1ccc(O)c(O)c1-3 [apomorphine] |  |  |  |  |  | antipsychotic effects [8]: produce antipsychotic effects
CC(C)C[C@H]1C(=O)N2CCC[C@H]2[C@]2(O)O[C@](NC(=O)[C@@H]3C=C4c5cccc6[nH]c(Br)c(c56)C[C@H]4N(C)C3)(C(C)C)C(=O)N12 [bromocriptine] |  |  |  |  |  | antipsychotic effects [8]: produce antipsychotic effects; relief of Parkinson's disease symptoms [9]: relieve Parkinson's disease symptoms in some patients
Oc1cc2c(cc1O)C1c3ccccc3CNC1CC2 (stereo not shown) [dihydrexidine] |  |  |  |  |  | dopamine agonist activity [1]: active as a dopamine agonist
